Reference: patent publication US6808930B1, “Therapeutic agents” (priority 1997, dated 2004)

System: L1210, A549 and HRTEC nuclei
Assay: DNA fragmentation in isolated nuclei
Format: cell-based
Settings: L1210 and A549 nuclei incubated with Ca2+ inhibitors
Procedure: Nuclei were purified from L1210, A549 and HRTEC cells and incubated with low concentrations of MAL (0.2 and 0.4 mg/ml). The formation of HMW and oligonucleosome length DNA fragments was examined.
A549, L1210 and HRTEC nuclei were isolated from homogenised cells. Pellet 1 from the homogenisation was washed twice in nuclei buffer for 20 min at 100×g and suspended in nuclei buffer for experiments. Rat liver nuclei was isolated.
A549, L1210 or HRTEC nuclei in suspension were placed in individual wells in a 24-well plate ([…]), mixed with MAL, α-lactalbumin, lactoferrin or BSA (100 μl in nucleus buffer), incubated at 37° C. for 1 hour (L1210,) or 2 hours (A549 and HRTEC), harvested by aspiration, analysed for DNA fragmentation as described above.

Row | SMILES | effect on MAL induced DNA fragmentation
1 | CC(=O)OCOC(=O)CN(CC(=O)OCOC(C)=O)c1ccccc1OCCOc1ccccc1N(CC(=O)OCOC(C)=O)CC(=O)OCOC(C)=O [BAPTA/AM, reference compound] | completely blocked the DNA fragmentation
2 | O=C(O)CN(CCN(CC(=O)O)CC(=O)O)CC(=O)O [EDTA, reference compound] | completely blocked the DNA fragmentation
